Columns and labels:
Assay type in all cases: cell-based
[1] = test system: GIST882, GOT3 and SA4 cell lines; assay: High throughput drug sensitivity and resistance test, average over cell lines (BAY2666605 combination); conditions: for Average DSS (aDSS): BAY2666605 combination, average of GIST882, SA4 and GOT3, aDSS higher than 3.0 = synergy; for synergy in high-throughput screening (in words): with anagrelide (GOT3, SA4) or BAY2666605 (GIST882, GOT3, SA4)
Procedure: (§1) Cell lines. PDE3A-positive (GIST882, SA4, and GOT3) and PDE3A-negative cell lines (93TT449, 94T778, LPS141, MLS17656-92, MLS402-91, and SW872) were cultured in RPMI Medium 1640 (Gibco) with 5-, 10- or 20% fetal bovine serum (FBS, gibco), 100 U/mL of penicillin, 100 […] and 0.03 mg/mL of L-glutamine (Pen Strep Glut, Gibco, 10378-016) in a humidified, 5% CO2 atmosphere at 37° C.
(§2) High throughput drug sensitivity and resistance test. A sensitivity and resistance of cancer cell lines to 528 compounds were investigated in 9 cell lines (GIST882, SA4, GOT3, 93TT449, 94T778, LPS141, MLS17656-92, MLS402-91, and SW872). In addition, same compounds were investigated together with anagrelide hydrochloride (100 nM) treatment in the PDE3A low expressing cell lines SA4 and GOT3, and with BAY2666605 (40 nM) in all PDE3A-positive cell lines GIST882, SA4 and GOT3. The compounds were dissolved in 100% dimethyl sulfoxide or water and plated in 10-fold dilutions covering a 10,000-fold concentration range on flat clear bottom 384-well microplates as described in detail earlier (Pulkka O P, et al 2019). A cell viability was measured after 72 hours using CellTiter-Glo Cell Viability assay (Promega Inc.) and PHERAstar FS plate reader (BMG Labtech). The data were normalized to negative (0.01% dimethyl sulfoxide only) and positive (100 μmol/L benzethonium chloride) controls.
(§3) A four-parameter logistic dose-response curves were estimated by using the Marquardt-Levenberg algorithm and Breeze analysis platform. Drug responses to the test compounds were measured using the drug sensitivity score (DSS). Drug synergy partners, which were common in investigated cell lines were identified as following: DSS value of a single agent was subtracted from the DSS value of anagrelide-drug combination in single cell lines. […] The analysis was repeated by using BAY2666605 as a PDE3A modulator.

GOT3 and SA4 cell lines = assay: High throughput drug sensitivity and resistance test, average over cell lines (anagrelide combination); conditions: anagrelide combination, average of SA4 and GOT3; aDSS higher than 3.0 = synergy
Procedure: as §1, §2, §3

GIST882 cell line = assay: High throughput drug sensitivity and resistance test (CellTiter-Glo, 72 hours); conditions: drug combined with BAY2666605 (40 nM) minus drug alone
Procedure: High throughput drug sensitivity and resistance test. […] In addition, same compounds were investigated together with anagrelide hydrochloride (100 nM) treatment in the PDE3A low expressing cell lines SA4 and GOT3, and with BAY2666605 (40 nM) in all PDE3A-positive cell lines GIST882, SA4 and GOT3. […] A cell viability was measured after 72 hours using CellTiter-Glo Cell Viability assay (Promega Inc.) and PHERAstar FS plate reader (BMG Labtech). The data were normalized to negative (0.01% dimethyl sulfoxide only) and positive (100 μmol/L benzethonium chloride) controls.
as §3

GOT3 cell line = assay: as above; conditions: GOT3; for GOT3 cell line: DSS(combo (BAY2666605))-DSS(drug): drug combined with BAY2666605 (40 nM) minus drug alone; for GOT3 cell line: DSS(combo (anagrelide))-DSS(drug): drug combined with anagrelide hydrochloride (100 nM) minus drug alone
Procedure: as §1, §2, §3

SA4 cell line = assay: as above; conditions: SA4; for SA4 cell line: DSS(combo (BAY2666605))-DSS(drug): drug combined with BAY2666605 (40 nM) minus drug alone; for SA4 cell line: DSS(combo (anagrelide))-DSS(drug): drug combined with anagrelide hydrochloride (100 nM) minus drug alone
Procedure: as §1, §2, §3

CN(C)Cc1ccc(S(=O)(=O)n2ccc(/C=C/C(=O)NO)c2)cc1 [Resminostat, resminostat]
Average DSS (aDSS) [1]: 6.0
synergy in high-throughput screening (in words) [1]: synergistic
Average DSS (aDSS) (GOT3 and SA4 cell lines): 6.7
GIST882 cell line: DSS(combo (BAY2666605))-DSS(drug) (GIST882 cell line): 3.1
GOT3 cell line: DSS(combo (BAY2666605))-DSS(drug) (GOT3 cell line): 3.1
GOT3 cell line: DSS(combo (anagrelide))-DSS(drug) (GOT3 cell line): −0.1
SA4 cell line: DSS(combo (BAY2666605))-DSS(drug) (SA4 cell line): 11.7
SA4 cell line: DSS(combo (anagrelide))-DSS(drug) (SA4 cell line): 13.5

CCN(CC)Cc1ccc2cc(COC(=O)Nc3ccc(C(=O)NO)cc3)ccc2c1 [Givinostat, givinostat]
Average DSS (aDSS) [1]: 9.6
synergy in high-throughput screening (in words) [1]: synergistic
Average DSS (aDSS) (GOT3 and SA4 cell lines): 4.65
GIST882 cell line: DSS(combo (BAY2666605))-DSS(drug) (GIST882 cell line): 7.3
GOT3 cell line: DSS(combo (BAY2666605))-DSS(drug) (GOT3 cell line): 3
GOT3 cell line: DSS(combo (anagrelide))-DSS(drug) (GOT3 cell line): −0.7
SA4 cell line: DSS(combo (BAY2666605))-DSS(drug) (SA4 cell line): 18.5
SA4 cell line: DSS(combo (anagrelide))-DSS(drug) (SA4 cell line): 10

CO[C@H]1C[C@@H]2CC[C@@H](C)[C@@](O)(O2)C(=O)C(=O)N2CCCC[C@H]2C(=O)O[C@H]([C@H](C)C[C@@H]2CC[C@@H](O)[C@H](OC)C2)CC(=O)[C@H](C)/C=C(\C)[C@@H](O)[C@@H](OC)C(=O)[C@H](C)C[C@H](C)/C=C/C=C/C=C/1C [Sirolimus, sirolimus]
Average DSS (aDSS) [1]: 4.4
Average DSS (aDSS) (GOT3 and SA4 cell lines): 6.45
GIST882 cell line: DSS(combo (BAY2666605))-DSS(drug) (GIST882 cell line): 3.4
GOT3 cell line: DSS(combo (BAY2666605))-DSS(drug) (GOT3 cell line): 2
GOT3 cell line: DSS(combo (anagrelide))-DSS(drug) (GOT3 cell line): 3.4
SA4 cell line: DSS(combo (BAY2666605))-DSS(drug) (SA4 cell line): 7.9
SA4 cell line: DSS(combo (anagrelide))-DSS(drug) (SA4 cell line): 9.5

COc1cc(C(=O)O)ccc1NC(=O)[C@@H]1N[C@@H](CC(C)(C)C)[C@](C#N)(c2ccc(Cl)cc2F)[C@H]1c1cccc(Cl)c1F [Idasanutlin, idasanutlin]
Average DSS (aDSS) [1]: 6.4
synergy in high-throughput screening (in words) [1]: synergistic
Average DSS (aDSS) (GOT3 and SA4 cell lines): 3.75
GIST882 cell line: DSS(combo (BAY2666605))-DSS(drug) (GIST882 cell line): 0
GOT3 cell line: DSS(combo (BAY2666605))-DSS(drug) (GOT3 cell line): −0.5
GOT3 cell line: DSS(combo (anagrelide))-DSS(drug) (GOT3 cell line): −1
SA4 cell line: DSS(combo (BAY2666605))-DSS(drug) (SA4 cell line): 19.6
SA4 cell line: DSS(combo (anagrelide))-DSS(drug) (SA4 cell line): 8.5

CCCCc1nc2cc(/C=C/C(=O)NO)ccc2n1CCN(CC)CC [Pracinostat, pracinostat]
Average DSS (aDSS) [1]: 6.4
synergy in high-throughput screening (in words) [1]: synergistic
Average DSS (aDSS) (GOT3 and SA4 cell lines): 6.7
GIST882 cell line: DSS(combo (BAY2666605))-DSS(drug) (GIST882 cell line): 5.7
GOT3 cell line: DSS(combo (BAY2666605))-DSS(drug) (GOT3 cell line): 1.5
GOT3 cell line: DSS(combo (anagrelide))-DSS(drug) (GOT3 cell line): −1.4
SA4 cell line: DSS(combo (BAY2666605))-DSS(drug) (SA4 cell line): 12
SA4 cell line: DSS(combo (anagrelide))-DSS(drug) (SA4 cell line): 14.8

CC(=O)c1cnc2ccc(-c3cc(Cl)c(O)c(Cl)c3)nc2c1N[C@H]1CC[C@H](CN(C)C)CC1 [OTS167]
Average DSS (aDSS) [1]: 5.2
synergy in high-throughput screening (in words) [1]: synergistic
Average DSS (aDSS) (GOT3 and SA4 cell lines): 5.55
GIST882 cell line: DSS(combo (BAY2666605))-DSS(drug) (GIST882 cell line): 1.9
GOT3 cell line: DSS(combo (BAY2666605))-DSS(drug) (GOT3 cell line): 3.2
GOT3 cell line: DSS(combo (anagrelide))-DSS(drug) (GOT3 cell line): 0.6
SA4 cell line: DSS(combo (BAY2666605))-DSS(drug) (SA4 cell line): 10.5
SA4 cell line: DSS(combo (anagrelide))-DSS(drug) (SA4 cell line): 10.5

O=C(/C=C/c1cccc(S(=O)(=O)Nc2ccccc2)c1)NO [Belinostat, belinostat]
Average DSS (aDSS) [1]: 5.4
synergy in high-throughput screening (in words) [1]: synergistic
Average DSS (aDSS) (GOT3 and SA4 cell lines): 5.55
GIST882 cell line: DSS(combo (BAY2666605))-DSS(drug) (GIST882 cell line): −0.3
GOT3 cell line: DSS(combo (BAY2666605))-DSS(drug) (GOT3 cell line): 0.8
GOT3 cell line: DSS(combo (anagrelide))-DSS(drug) (GOT3 cell line): 1.1
SA4 cell line: DSS(combo (BAY2666605))-DSS(drug) (SA4 cell line): 15.8
SA4 cell line: DSS(combo (anagrelide))-DSS(drug) (SA4 cell line): 10

CC(C)N(C[C@H]1O[C@@H](n2cnc3c(N)ncnc32)[C@H](O)[C@@H]1O)[C@H]1C[C@@H](CCc2nc3cc(C(C)(C)C)ccc3[nH]2)C1 [Pinometostat, pinometostat]
Average DSS (aDSS) [1]: 4.6
synergy in high-throughput screening (in words) [1]: synergistic
GIST882 cell line: DSS(combo (BAY2666605))-DSS(drug) (GIST882 cell line): 3.9
GOT3 cell line: DSS(combo (BAY2666605))-DSS(drug) (GOT3 cell line): 0
SA4 cell line: DSS(combo (BAY2666605))-DSS(drug) (SA4 cell line): 9.8

CN(C)Cc1c(C(=O)NCCOc2ccc(C(=O)NO)cc2)oc2ccccc12 [Abexinostat, abexinostat]
Average DSS (aDSS) [1]: 6.2
synergy in high-throughput screening (in words) [1]: synergistic
Average DSS (aDSS) (GOT3 and SA4 cell lines): 4.9
GIST882 cell line: DSS(combo (BAY2666605))-DSS(drug) (GIST882 cell line): 4.2
GOT3 cell line: DSS(combo (BAY2666605))-DSS(drug) (GOT3 cell line): 2.1
GOT3 cell line: DSS(combo (anagrelide))-DSS(drug) (GOT3 cell line): −1.1
SA4 cell line: DSS(combo (BAY2666605))-DSS(drug) (SA4 cell line): 12.3
SA4 cell line: DSS(combo (anagrelide))-DSS(drug) (SA4 cell line): 10.9

CC1(C)CCC(CN2CCN(c3ccc(C(=O)NS(=O)(=O)c4ccc(NCC5CCOCC5)c([N+](=O)[O-])c4)c(Oc4cnc5[nH]ccc5c4)c3)CC2)=C(c2ccc(Cl)cc2)C1 [Venetoclax, venetoclax]
Average DSS (aDSS) [1]: 13.8
Average DSS (aDSS) (GOT3 and SA4 cell lines): 3.1
GIST882 cell line: DSS(combo (BAY2666605))-DSS(drug) (GIST882 cell line): 12.2
GOT3 cell line: DSS(combo (BAY2666605))-DSS(drug) (GOT3 cell line): 0.2
GOT3 cell line: DSS(combo (anagrelide))-DSS(drug) (GOT3 cell line): 0
SA4 cell line: DSS(combo (BAY2666605))-DSS(drug) (SA4 cell line): 29
SA4 cell line: DSS(combo (anagrelide))-DSS(drug) (SA4 cell line): 6.2

COc1ccc(C[C@H](NC(=O)[C@H](C)NC(=O)CN2CCOCC2)C(=O)N[C@@H](Cc2ccccc2)C(=O)C2(C)CO2)cc1 (stereo in doubt) [ONX-0914]
Average DSS (aDSS) [1]: 4.6
synergy in high-throughput screening (in words) [1]: synergistic
GIST882 cell line: DSS(combo (BAY2666605))-DSS(drug) (GIST882 cell line): 8.4
GOT3 cell line: DSS(combo (BAY2666605))-DSS(drug) (GOT3 cell line): 0.9
SA4 cell line: DSS(combo (BAY2666605))-DSS(drug) (SA4 cell line): 4.6

CC(C)C[C@H](NC(=O)[C@H](Cc1ccccc1)NC(=O)c1cnccn1)B(O)O [Bortezomib, bortezomib]
Average DSS (aDSS) [1]: 7.8
GIST882 cell line: DSS(combo (BAY2666605))-DSS(drug) (GIST882 cell line): 1.7
GOT3 cell line: DSS(combo (BAY2666605))-DSS(drug) (GOT3 cell line): 10.4
SA4 cell line: DSS(combo (BAY2666605))-DSS(drug) (SA4 cell line): 11.2

CO[C@H]1C[C@@H]2CC[C@@H](C)[C@@](O)(O2)C(=O)C(=O)N2CCCC[C@H]2C(=O)O[C@H]([C@H](C)C[C@@H]2CC[C@@H](OP(C)(C)=O)[C@H](OC)C2)CC(=O)[C@H](C)/C=C(\C)[C@@H](O)[C@@H](OC)C(=O)[C@H](C)C[C@H](C)/C=C/C=C/C=C/1C [Ridaforolimus, ridaforolimus]
Average DSS (aDSS) (GOT3 and SA4 cell lines): 8.8
GIST882 cell line: DSS(combo (BAY2666605))-DSS(drug) (GIST882 cell line): 0.3
GOT3 cell line: DSS(combo (BAY2666605))-DSS(drug) (GOT3 cell line): −1.9
GOT3 cell line: DSS(combo (anagrelide))-DSS(drug) (GOT3 cell line): 4.4
SA4 cell line: DSS(combo (BAY2666605))-DSS(drug) (SA4 cell line): 13.7
SA4 cell line: DSS(combo (anagrelide))-DSS(drug) (SA4 cell line): 13.2

Cn1nnc2c(C(N)=O)ncn2c1=O [Temozolomide, temozolomide]
Average DSS (aDSS) [1]: 4.2
GIST882 cell line: DSS(combo (BAY2666605))-DSS(drug) (GIST882 cell line): 5.4
GOT3 cell line: DSS(combo (BAY2666605))-DSS(drug) (GOT3 cell line): 1.9
SA4 cell line: DSS(combo (BAY2666605))-DSS(drug) (SA4 cell line): 5.2

Reference: patent US20250041294A1, “Synergistic compositions for use in the treatment of cancer” (Sartar Therapeutics Oy, priority 2021, published 2025)
